# What was measured:
# [1] = system: ASPC1; assay: Cytotoxicity against human ASPC1 cells assessed as reduction in cell viability measured after 72 hrs by SRB assay; format: functional, cell-based; details: ASPC1, 72 h
# [2] = system: DU-145; assay: Cytotoxicity against human DU-145 cells assessed as reduction in cell viability measured after 72 hrs by SRB assay; format: functional, cell-based; details: DU-145, 72 h
# [3] = system: Capan-2; assay: Cytotoxicity against human Capan-2 cells assessed as reduction in cell viability measured after 72 hrs by SRB assay; format: functional, cell-based; details: Capan-2, 72 h
# [4] = system: Quadruplex DNA; assay: Stabilization of 5'-FAM/3'-TAMRA labeled K-Ras G4 quadruplex DNA (unknown origin) assessed as change in melting temperature at 10 microM measured after 15 mins by FRET assay; format: nucleic-acid assay
# [5] = system: HCT-116; assay: Cytotoxicity against human HCT-116 cells assessed as reduction in cell viability measured after 72 hrs by SRB assay; format: functional, cell-based; details: HCT-116, 72 h
# [6] = Toxicity in BALB/c mouse assessed as macroscopic anatomopathological changes at total dose of 6 mg/kg, iv administered as 3 times per week for 2 weeks measured for 71 days; format: organism-based; details: in vivo, 1704 h, time 71 day
# [7] = system: PANC-1; assay: Antitumour activity against human PANC-1 cells xenografted in Crl:Nu-Foxnl nu mouse assessed as inhibition of tumour growth at total effective dose of 16 mg/kg, iv measured on day 33; format: functional; details: PANC-1, iv, 792 h, time 33 day, read-out: TGI
# [8] = Toxicity in BALB/c mouse assessed as effect on body weight at total dose of 6 mg/kg, iv administered as 3 times per week for 2 weeks measured for 71 days; format: organism-based; details: in vivo, 1704 h, time 71 day
# [9] = system: Quadruplex DNA; assay: Stabilization of 5'-FAM/3'-TAMRA labeled telomeric G4 quadruplex DNA F21T (unknown origin) assessed as change in melting temperature at 10 microM measured after 15 mins by FRET assay; format: nucleic-acid assay
# [10] = system: MDA-MB-231; assay: Antitumour activity against human MDA-MB-231 cells xenografted in Crl:Nu-Foxnl nu mouse assessed as inhibition of tumour growth at total effective dose of 32 mg/kg, iv measured on day 32; format: functional; details: MDA-MB-231, iv, 768 h, time 32 day, read-out: TGI
# [11] = system: PANC-1; assay: Cytotoxicity against human PANC-1 cells assessed as reduction in cell viability measured after 72 hrs by SRB assay; format: functional, cell-based; details: PANC-1, 72 h
# [12] = system: MCF7; assay: Cytotoxicity against human MCF7 cells assessed as reduction in cell viability measured after 72 hrs by SRB assay; format: functional, cell-based; details: MCF7, 72 h
# [13] = system: BXPC-3; assay: Antitumour activity against human BXPC-3 cells xenografted in Crl:Nu-Foxnl nu mouse assessed as inhibition of tumour growth at total effective dose of 16 mg/kg, iv measured on day 32; format: functional; details: BXPC-3, iv, 768 h, time 32 day, read-out: TGI
# [14] = system: Quadruplex DNA; assay: Stabilization of 5'-FAM/3'-TAMRA labeled c-Myc promoter G4 quadruplex DNA FPu18 (unknown origin) assessed as change in melting temperature at 10 microM measured after 15 mins by FRET assay; format: nucleic-acid assay
# [15] = system: MIA PaCa-2; assay: Cytotoxicity against human MIA PaCa-2 cells assessed as reduction in cell viability measured after 72 hrs by SRB assay; format: functional, cell-based; details: MIA PaCa-2, 72 h
# [16] = system: MIA PaCa-2; assay: Antitumour activity against human MIA PaCa-2 cells xenografted in Crl:Nu-Foxnl nu mouse assessed as inhibition of tumour growth at total effective dose of 12 mg/kg, ip measured on day 15; format: functional; details: MIA PaCa-2, ip, 360 h, time 15 day, read-out: TGI
# [17] = system: BXPC-3; assay: Antitumour activity against human BXPC-3 cells xenografted in Crl:Nu-Foxnl nu mouse assessed as inhibition of tumour growth at total effective dose of 16 mg/kg, iv measured on day 44; format: functional; details: BXPC-3, iv, 1056 h, time 44 day, read-out: TGI
# [18] = system: BXPC-3; assay: Cytotoxicity against human BXPC-3 cells assessed as reduction in cell viability measured after 72 hrs by SRB assay; format: functional, cell-based; details: BXPC-3, 72 h
# [19] = system: ASPC1; assay: Antitumour activity against human ASPC1 cells xenografted in Crl:Nu-Foxnl nu mouse assessed as inhibition of tumour growth at total effective dose of 16 mg/kg, iv measured on day 39; format: functional; details: 936 h, time 39 day, read-out: TGI
# [20] = system: DU-145; assay: Antitumour activity against human DU-145 cells xenografted in Crl:Nu-Foxnl nu mouse assessed as inhibition of tumour growth at total effective dose of 16 mg/kg, iv measured on day 33; format: functional; details: DU-145, iv, 792 h, time 33 day, read-out: TGI
# [21] = system: NCI-H460; assay: Cytotoxicity against human NCI-H460 cells assessed as reduction in cell viability measured after 72 hrs by SRB assay; format: functional, cell-based; details: NCI-H460, 72 h
# [22] = Stabilization of ds 5'-FAM-d(TATAGCTATA-HEG-TATAGCTATA)-TAMRA-3' (unknown origin) assessed as change in melting temperature at 10 microM measured after 15 mins by FRET assay; details: Homo sapiens
# [23] = system: MDA-MB-231; assay: Cytotoxicity against human MDA-MB-231 cells assessed as reduction in cell viability measured after 72 hrs by SRB assay; format: functional, cell-based; details: MDA-MB-231, 72 h
# [24] = Toxicity in BALB/c mouse assessed as macroscopic anatomopathological changes at total dose of 120 mg/kg, iv administered as 3 times per week for 2 weeks measured for 65 days; format: organism-based; details: in vivo, 1560 h, time 65 day
# [25] = system: BXPC-3; assay: Antitumour activity against human BXPC-3 cells xenografted in Crl:Nu-Foxnl nu mouse assessed as inhibition of tumour growth at total effective dose of 160 mg/kg, iv measured on day 29; format: functional; details: BXPC-3, iv, 696 h, time 29 day, read-out: TGI
# [26] = Toxicity in BALB/c mouse assessed as effect on body weight at total dose of 120 mg/kg, iv administered as 3 times per week for 2 weeks measured for 65 days; format: organism-based; details: in vivo, 1560 h, time 65 day
# [27] = system: PANC-1; assay: Antitumour activity against human PANC-1 cells xenografted in Crl:Nu-Foxnl nu mouse assessed as inhibition of tumour growth at total effective dose of 160 mg/kg, iv measured on day 40; format: functional; details: PANC-1, iv, 960 h, time 40 day, read-out: TGI
# [28] = system: PANC-1; assay: Antitumour activity against human PANC-1 cells xenografted in Crl:Nu-Foxnl nu mouse assessed as inhibition of tumour growth at total effective dose of 80 mg/kg, iv measured on day 56; format: functional; details: PANC-1, iv, 1344 h, time 56 day, read-out: TGI
# [29] = Toxicity in BALB/c mouse assessed as effect on body weight at 60 mg/kg, iv administered as single dose measured for 64 days; format: organism-based; details: in vivo, 1536 h, time 64 day
# [30] = system: BXPC-3; assay: Antitumour activity against human BXPC-3 cells xenografted in Crl:Nu-Foxnl nu mouse assessed as inhibition of tumour growth at total effective dose of 80 mg/kg, iv measured on day 32; format: functional; details: BXPC-3, iv, 768 h, time 32 day, read-out: TGI
# [31] = Toxicity in BALB/c mouse assessed as macroscopic anatomopathological changes at 60 mg/kg, iv administered as single dose measured for 64 days; format: organism-based; details: in vivo, 1536 h, time 64 day
# [32] = system: MIA PaCa-2; assay: Antitumour activity against human MIA PaCa-2 cells xenografted in Crl:Nu-Foxnl nu mouse assessed as inhibition of tumour growth at total effective dose of 20 mg/kg, ip measured on day 33; format: functional; details: MIA PaCa-2, ip, 792 h, time 33 day, read-out: TGI
# [33] = system: PANC-1; assay: Antitumour activity against human PANC-1 cells xenografted in Crl:Nu-Foxnl nu mouse assessed as inhibition of tumour growth at total effective dose of 48 mg/kg, iv measured on day 32; format: functional; details: PANC-1, iv, 768 h, time 32 day, read-out: TGI
ΔTm [4] [°C],ΔTm [9] [°C],ΔTm [14] [°C],ΔTm [22] [°C],SMILES,IC50 [1] [µM],IC50 [2] [µM],IC50 [3] [µM],IC50 [5] [µM],IC50 [11] [µM],IC50 [15] [µM],IC50 [18] [µM],IC50 [21] [µM],IC50 [23] [µM],also measured
27.6,30,23.3,5.4,O=c1c2ccccc2n2cnc3ccc(NCCCN4CCN(CCCNc5c6ccccc6nc6cccc([N+](=O)[O-])c56)CC4)c1c32,0.069,0.022,0.032,0.025,0.024,0.039,0.054,0.015,0.021,Activity [6]: Non-Toxic; inhibition in vivo at 16 mg/kg [7]: 80%; Activity [8]: Non-Toxic; inhibition in vivo at 32 mg/kg [10]: 53%; IC50 [12]: 0.082 µM; inhibition in vivo at 16 mg/kg [13]: 48%; inhibition in vivo at 12 mg/kg [16]: 38%; inhibition in vivo at 16 mg/kg [17]: 81%; inhibition in vivo at 16 mg/kg [19]: 29%; inhibition in vivo at 16 mg/kg [20]: 61%
19.9,19.2,27,3.6,Cc1cc(C(N)CCN2CCN(CCCNc3ccc4ncn5c6ccccc6c(=O)c3c45)CC2)c([N+](=O)[O-])c2cc3ccccc3nc12 (stereo unspecified),0.24,0.062,,0.045,0.065,0.058,0.351,,,Activity [24]: Non-Toxic; inhibition in vivo at 160 mg/kg [25]: 40%; Activity [26]: Non-Toxic; inhibition in vivo at 160 mg/kg [27]: 64%
10.7,18.3,27.6,2.8,Cc1cc(NCCCN(C)CCCNc2ccc3ncn4c5ccc(O)cc5c(=O)c2c34)c([N+](=O)[O-])c2cc3ccccc3nc12,0.152,0.059,0.052,0.04,0.216,0.059,0.169,0.095,0.052,inhibition in vivo at 80 mg/kg [28]: 64%; Activity [29]: Non-Toxic; inhibition in vivo at 80 mg/kg [30]: 77%; Activity [31]: Non-Toxic; inhibition in vivo at 20 mg/kg [32]: 55%; inhibition in vivo at 48 mg/kg [33]: 63%

# From ChEMBL document CHEMBL4765407, “Design, synthesis and high antitumor potential of new unsymmetrical bisacridine derivatives towards human solid tumors, specifically pancreatic cancers and their unique ability to stabilize DNA G-quadruplexes” (Eur J Med Chem, 2020)
